Patent US11779014B2, “Adjuvants” (SYNGENTA PARTICIPATIONS AG, priority 2017, dated 2023)
Values belong to the compound of their own block, whether it stands above or below them.

How the values were obtained:
Avena fatua (AVEFA) = assay: Glasshouse adjuvancy test for pinoxaden on AVEFA; type: in vivo; conditions: pinoxaden 15 g ai/ha, total surfactant 0.2% w/v, 21 days
Experimental: The efficacy of 1:1 blends of oleyl 20EO with oleyl 20EO with either n-hexanoyl, n-octanoyl or 2-ethyl hexanoyl ester caps as adjuvants for the herbicide pinoxaden was tested in a glasshouse against two weed species, sown into standard soil in pots and cultivated under controlled conditions in a glasshouse (20/16° C. day/night; 16 hours light; 65% humidity). Pinoxaden was added to the spray tank as a standard EC (emulsifiable concentrate) formulation. The plants were sprayed with pinoxaden at rates of 7.5 or 15 grams of pesticide per hectare using a laboratory track sprayer which delivered the aqueous spray composition at a rate of 200 litres per hectare, using a flat fan nozzle (Teejet 11002VS) at 2 bar. The spray solutions also contained the oleyl 20EO alone or in the 1:1 blends with the capped surfactants. The adjuvants were added to the spray solution at a total surfactant rate of 0.2% w/v. All spray solutions also contained 10% w/w of iso-propanol. The weed species and their BBCH growth stage at spraying were Avena fatua (AVEFA; growth stage 13) and Setaria viridis (SETVI; growth stage 13). Each spray test was replicated three times. The test plants were then grown in a glasshouse under controlled conditions (20/16° C. day/night; 16 hours light; 65% humidity) and watered twice a day. The efficacy of the herbicide was assessed visually and expressed as a percentage of the leaf area killed. Samples were assessed at a time period of 21 days following application.
Dodecyl 23EO and hexadecyl 20EO were capped with an n-hexyl ether cap. The efficacy of 1:1 blends of these with their uncapped counterparts were tested as adjuvants for the herbicide pinoxaden was tested in a glasshouse against two weed species, sown into standard soil in pots and cultivated under controlled conditions in a glasshouse (20/16° C. day/night; 16 hours light; 65% humidity). Pinoxaden was added to the spray tank as a standard EC (emulsifiable concentrate) formulation. The plants were sprayed with pinoxaden at a.i. rates of 7.5 or 15 grams per hectare using a laboratory track sprayer which delivered the aqueous spray composition at a rate of 200 litres per hectare, using a flat fan nozzle (Teejet 11002VS) at 2 bar. The spray solutions tested included the capped and uncapped alone or in the 1:1 blends with the capped surfactants. The adjuvants were added to the spray solution at a total surfactant rate of 0.2% w/v. All spray solutions also contained 10% w/w of iso-propanol. The weed species and their BBCH growth stage at spraying was Avena fatua (AVEFA; growth stage 12). Each spray test was replicated three times. The test plants were then grown in a glasshouse under controlled conditions (20/16° C. day/night; 16 hours light; 65% humidity) and watered twice a day. The efficacy of the herbicide was assessed visually and expressed as a percentage of the leaf area killed. Samples were assessed at a time period of 21 days following application.
Oleyl 20EO was capped with -butyl, n-pentyl and n-benzyl caps. The efficacy of 1:1 blends of these with their uncapped counterparts were tested as adjuvants for the herbicide pinoxaden was tested in a glasshouse against two weed species, sown into standard soil in pots and cultivated under controlled conditions in a glasshouse (20/16° C. day/night; 16 hours light; 65% humidity). Pinoxaden was added to the spray tank as a standard EC (emulsifiable concentrate) formulation. The plants were sprayed with pinoxaden at a.i. rates of 7.5 or 15 grams per hectare using a laboratory track sprayer which delivered the aqueous spray composition at a rate of 200 litres per hectare, using a flat fan nozzle (Teejet 11002VS) at 2 bar. The spray solutions tested included the capped and uncapped alone or in the 1:1 blends with the capped surfactants. The adjuvants were added to the spray solution at a total surfactant rate of 0.2% w/v. All spray solutions also contained 10% w/w of iso-propanol.

[1] = Cloud point measurement (absorbance at 500 nm as a function of temperature); type: physicochemical
Experimental: Consistent with the standard method for measuring the cloud point of surfactants, the cloud point of each of the above blends was measured at a total concentration of 1% w/w in water using a Perkin Elmer spectrophotometer fitted with a PTP6 temperature controller. The absorbance of the solution at 500 nm wavelength was determined as a function of temperature. The cloud point was recorded as the onset of a rapid increase in absorbance as the solution began to cloud.
Cloud point—the measurements relied on the same method as for ‘Example 1’
Cloud points—were measured using the same method as in Example 1.
(§1) This example provides de-gelling, cloud point and adjuvancy data for dodecyl 23 ethoxylate with n-hexyl cap and hexadecyl 20 ethoxylate with n-hexyl cap Cloud points were measured as described in example 1 for 1% aqueous solutions of the capped and uncapped surfactants both individually and as blends (see Table 30). Degelling temperatures were also measured as outlined in example 1 for 25, 30, 35 and 40% aqueous solutions of the capped and uncapped surfactants both individually and as blends (see Table 31).
(§2) This example provides de-gelling, cloud point and adjuvancy data for oleyl 20 ethoxylate with n-butyl, n-pentyl or benzyl ether caps end capped oleyl 20 ethoxylate. Cloud points were measured as described in example 1 for 1% aqueous solutions of the capped and uncapped surfactants both individually and as blends. Degelling temperatures were also measured as outlined in example 1 for 25, 30, 35 and 40% aqueous solutions o of the capped and uncapped surfactants both individually and as blends.

[2] = De-gelling temperature of aqueous surfactant blends by low shear rheology (Bohlin Gemini rheometer, storage modulus vs temperature); type: physicochemical
Experimental: The temperatures at which blends of capped and uncapped surfactants de-gel were determined by standard low shear rheology with a Bohlin™ Gemini rheometer. The storage modulus (G′) at 1 Hz was determined at a strain of 0.001-0.002 in a standard C14 cup and bob geometry over a temperature range of 5-70° C., the exact range depending on the de-gelling point of the sample. Plots of storage modulus versus temperature were constructed and the de-gelling temperature was taken to be the point at which the modulus begins to fall rapidly from its high value in the gelled state (typically ca. 10^5 Pa) down to the final value in the de-gelled state (less than 10 Pa). Blends of surfactants were prepared at from 25 to 40% w/w total surfactant concentration in water. Samples were left in an oven at 55° C. for several days to ensure that the mixtures were homogeneous. Samples were placed in the C14 cup and the samples were de-gelled by raising the temperature in the rheometer, the bob was then inserted and the sample was then cooled at 1° C./min, whilst the storage modulus was regularly recorded during the cooling. Once the final temperature had been reached (i.e. when the sample had gelled), the temperature was then increased again and the modulus again recorded. The de-gelling temperature was determined from the increasing temperature cycle.
Degelling temperatures—the measurements relied on the same method as for ‘Example 1’ but just at 30% w/w total surfactant concentration.
De-gelling temperatures were measured using the same method as in Example 1.
as §1, §2

[3] = test system: Chenopodium album (CHEAL); assay: Glasshouse adjuvancy test for nicosulfuron on CHEAL; type: in vivo
Experimental: (§3) The biological efficacies of blends of an oleyl 20 ethoxylate uncapped surfactant with an oleyl 20 ethoxylate surfactant with an n-hexyl ether cap as adjuvants for the herbicide nicosulfuron were tested in a glasshouse against three weed species sown into standard soil in pots and cultivated under controlled conditions in a glasshouse (24/18° C. day/night; 16 hours light; 65% humidity). Nicosulfuron was added to the spray tank as a standard WG (water dispersible granule) formulation. The plants were sprayed with nicosulfuron at rates of 15 or 60 grams of pesticide per hectare using a laboratory track sprayer which delivered the aqueous spray composition at a rate of 200 litres per hectare, using a flat fan nozzle (Teejet 11002VS) at 2 bar. The adjuvants were added to the spray solution at a total rate of 0.1 or 0.2% w/v in all cases and at extra lower rates for the oleyl 20EO alone and its 1:1 blend with the oleyl 20EO n-hexyl ether to show the dose response to these adjuvants. All spray solutions also contained 10% w/w of iso-propanol. The weed species and their BBCH growth stage at spraying were Chenopodium album (CHEAL; growth stage 15), Digitaria sanguinalis (DIGSA; growth stage 14), and Commelina benghalensis (COMBE; growth stage 14). Each spray test was replicated three times. The test plants were then grown in a glasshouse under controlled conditions (24/18° C. day/night; 16 hours light; 65% humidity) and watered twice a day. The efficacy of the herbicide was assessed visually and expressed as a percentage of the leaf area killed. Samples were assessed at a time period of 21 days following application. The following tables (3-8) show the effect of blends of the two surfactants at a total concentration of 0.2 and 0.1%. In each case the blends were 1:0, 3:1, 1:1, 1:3 and 0:1 w/w of oleyl 20EO:oleyl 20 EO n-hexyl ether.
The biological efficacies of blends of oleyl 20 ethoxylate and oleyl 20EO ethoxylate with a benzoate cap as adjuvants for the herbicide nicosulfuron were tested in a glasshouse using the same method as for ‘Example 1’ but against just two weed species and with just 0.2% w/v total adjuvant concentration. The weed species and their BBCH growth stage at spraying HI were Chenopodium album (CHEAL; growth stage 13-15) and Digitaria sanguinalis (DIGSA; growth stage 14-22).
The biological efficacies of 1:1 blends of an oleyl 20 ethoxylate uncapped surfactant with oleyl 20E ethoxylate surfactants with hexanoyl, n-octanoyl or 2-ethyl hexanoyl ester caps as adjuvants for the herbicide nicosulfuron were tested in a glasshouse using the same method as for ‘Example 1’ but against just one weed species and at 0.2% w/v tital adjuvant concentration. The weed species and its BBCH growth stage at spraying was Chenopodium album (CHEAL; growth stage 15).

[4] = test system: Digitaria sanguinalis (DIGSA); assay: Glasshouse adjuvancy test for nicosulfuron on DIGSA; type: in vivo
Experimental: as §3, with “ether. The biological efficacies of blends of oleyl 20 ethoxylate and oleyl 20EO ethoxylate with a benzoate cap as adjuvants for the herbicide nicosulfuron were tested in a glasshouse using the same method as for ‘Example 1’ but against just two weed species and with just 0.2% w/v total adjuvant concentration. The weed species and their BBCH growth stage at spraying HI were Chenopodium album (CHEAL; growth stage 13-15) and Digitaria sanguinalis (DIGSA; growth stage 14-22).” for “ether.”

[5] = dose response, nicosulfuron 15 g ai/ha, adjuvant 0%
[6] = dose response, nicosulfuron 60 g ai/ha, adjuvant 0%

Cloud point ([1]; 1% aqueous solutions, Table 34): 55.9 °C
De-gelling temperature ([2]; total surfactant concentration 25% w/w, Table 35): <5 °C
De-gelling temperature ([2]; total surfactant concentration 30% w/w, Table 35): 27.3 °C
De-gelling temperature ([2]; total surfactant concentration 35% w/w, Table 35): 34.0 °C
De-gelling temperature ([2]; total surfactant concentration 40% w/w, Table 35): 36.1 °C
Compound: Oleyl 20EO n-pentyl ether
Mean control (Avena fatua (AVEFA); Example 9, growth stage 12): 87.7%

De-gelling temperature ([2]; 40% w/w, Table 19): 16.5 °C
Compound: CCCCCCCC/C=C\CCCCCCCCOCCOCCOCCOCCOCCOCCOCCOCCOCCOCCOCCOCCOCCOCCOCCOCCOCCOCCOCCOCCOC(=O)CCCCCCC [Oleyl 20EO n-octanoyl ester, oleyl 20EO n-octanoyl ester]

More lines, now with the values behind:

Compound: Oleyl 20EO n-butyl ether
Mean control (Avena fatua (AVEFA); Example 9, growth stage 12): 96.3%

Compound: CCCCCCCC/C=C\CCCCCCCCOCCOCCOCCOCCOCCOCCOCCOCCOCCOCCOCCOCCOCCOCCOCCOCCOCCOCCOCCOCCOC(=O)c1ccccc1 [Oleyl 20EO benzoate, oleyl 20 ethoxylate benzoate]
Cloud point ([1]; 1%, Table 15): 27.3 °C
Mean control ([3]; nicosulfuron 15 g ai/ha, 0.2% w/v total adjuvant, Example 3, growth stage 13-15): 75.0%
Mean control ([3]; nicosulfuron 60 g ai/ha, 0.2% w/v total adjuvant, Example 3, growth stage 13-15): 81.7%
Mean control ([4]; nicosulfuron 15 g ai/ha, 0.2% w/v total adjuvant, Example 3, growth stage 14-22): 96.7%
Mean control ([4]; nicosulfuron 60 g ai/ha, 0.2% w/v total adjuvant, Example 3, growth stage 14-22): 99.3%
De-gelling temperature ([2]; 30% w/w total surfactant concentration, Table 15): <3.8 °C

Compound: dodecyl 23 ethoxylate [Dodecyl 23EO]
Mean control (Avena fatua (AVEFA); Example 7, growth stage 12): 83.3%
Cloud point ([1]; 1% aqueous solutions, Table 30): >90.0 °C
De-gelling temperature ([2]; total surfactant concentration 25% w/w, Table 31): 21.1 °C
De-gelling temperature ([2]; total surfactant concentration 30% w/w, Table 31): 38.6 °C
De-gelling temperature ([2]; total surfactant concentration 35% w/w, Table 31): 55.0 °C
De-gelling temperature ([2]; total surfactant concentration 40% w/w, Table 31): 64.3 °C

Compound: COc1cc(OC)nc(NC(=O)NS(=O)(=O)c2ncccc2C(=O)N(C)C)n1 [nicosulfuron]
Mean control [3, 5]: 4.0%
Mean control [3, 6]: 8.3%
Mean control [4, 5]: 4.0%
Mean control [4, 6]: 33.3%

Compound: CCCCCCCC/C=C\CCCCCCCCOCCOCCOCCOCCOCCOCCOCCOCCOCCOCCOCCOCCOCCOCCOCCOCCOCCOCCOCCOCCOC(=O)CCCCC [Oleyl 20EO n-hexanoyl ester, oleyl 20EO n-hexanoyl ester]
Cloud point ([1]; 1%, Table 20): 28.0 °C
Degelling temperature ([2]; total surfactant concentration 40% w/w, Table 18): 13.6 °C
